Values of other authors as cited in patent publication US20050118235A1, “Dietary non-essential amino acid tyrosine regulates the body weight of animals through regulating the animal appetite or food intake” (priority 2003, published 2005).

Test system: activity anorexia in mice
Conditions: tyrosine injection, activity anorexia in mice (Avraham et al. 2001)

N[C@@H](Cc1ccc(O)cc1)C(=O)O [Tyrosine]
effect on appetite, cognition and exercise tolerance: improves appetite, cognition, and exercise tolerance
